Measured values taken from patent US9856290B2, “Glycopeptide compositions and uses thereof” (SUSSEX RESEARCH LABORATORIES INC., priority 2013, dated 2018).
Marks after values point to notes of the source that are not given here. Primed or numbered codes have the meaning given here. The star is where a group is joined. Ac3‑α‑GalNAc = per-acetylated α-N-acetylgalactosamine (O-glycoside), CC(=O)N[C@@H]1[C@@H](OC(C)=O)[C@@H](OC(C)=O)[C@@H](COC(C)=O)O[C@@H]1*; Ac3‑α‑GalNAc″ = peracetylated alpha-N-acetylgalactosamine, CC(=O)N[C@@H]1[C@@H](OC(C)=O)[C@@H](OC(C)=O)[C@@H](COC(C)=O)O[C@@H]1*; Ac3‑β‑GlcNAc = per-acetylated β-N-acetylglucosamine, CC(=O)N[C@@H]1[C@@H](OC(C)=O)[C@H](OC(C)=O)[C@@H](COC(C)=O)O[C@H]1*; Ac4‑β‑Glc = per-acetylated β-glucose (tetraacetyl), CC(=O)OC[C@H]1O[C@@H](*)[C@H](OC(C)=O)[C@@H](OC(C)=O)[C@@H]1OC(C)=O; Ac4‑β‑Glc″ = peracetylated beta-glucose, CC(=O)OC[C@H]1O[C@@H](*)[C@H](OC(C)=O)[C@@H](OC(C)=O)[C@@H]1OC(C)=O; Ac4‑α‑Man = per-acetylated α-mannose, CC(=O)OC[C@H]1O[C@H](*)[C@@H](OC(C)=O)[C@@H](OC(C)=O)[C@@H]1OC(C)=O; αGalNAc = CC(=O)N[C@@H]1[C@@H](O)[C@@H](O)[C@@H](CO)O[C@@H]1*; αMan = OC[C@H]1O[C@H](*)[C@@H](O)[C@@H](O)[C@@H]1O; βGlc = OC[C@H]1O[C@@H](*)[C@H](O)[C@@H](O)[C@@H]1O; Palmitoyl = CCCCCCCCCCCCCCCC(=O)*

Key:
[1] = test system: Human Dermal Fibroblasts (KMST-6); assay: ECM ELISA assay: fibronectin secretion by human dermal fibroblasts; format: cell-based; details: 5 μM; for Fibronectin secretion at 48 hours: KMST-6, 48 hours; for Fibronectin secretion at 48 hours / Fibronectin Secretion at 72 hours: % compared to control set at 100%, normalized to total protein
Protocol: (§1) KMST-6 cells (Japan Health Sciences Foundation, JCRB0433) were seeded at 7,000 cells/ml in 12-well tissue culture treated plates (Falcon, 353043) in complete media. The complete media consisted of the following: MEM/EBSS (Hyclone, SH30024.01), 10% Heat-Inactivated FBS (Gibco, 10082-147), 1% L-Glutamine (Hyclone, SH30031.01), 1% Nucleosides (800 mg/L Adenosine, 850 mg/L Guanidine, 730 mg/L Cytidine, 730 mg/L Uridine and 240 mg/L Thymidine), 1% Penicillin/Streptomycin (HyClone, SV30010), 1% Sodium Pyruvate (HyClone, SH30239.01), 1% Non-Essential Amino Acids (Hyclone, SH30238.01) and 0.04% Gentamicin (Gibco, 15710-064). Cells were grown for 2 days prior to treatments. The media was aspirated and cells were washed with 1×PBS (Fisher, SH30256.01) and treated with 5 μM (1 mL/well) glycopeptides, reference (Pal-KTTKS, CPC Scientific, 822197), and control (DMSO, Fisher, BP231-100) in serum-free media supplemented with 50 μg/mL Sodium Ascorbate (Sigma, A4034) and 80 μg/mL β-Aminopropionate Fumarate (Sigma, A3134). The treated cells were incubated at 37° C. and 5% CO2 for 48 and 72 hours. At each timepoint, media from each treatment was collected and centrifuged at 1500 RPM for 15 minutes at 4° C. The supernatant was collected and stored at −80° C. for extracellular matrix protein quantification. The following kits were used for quantification of ECM proteins: Fibronectin (Takara, MK115) and Elastin (Uscn Life Science Inc., E91337Hu). The cells were harvest and lysed with 250 μL Lysis Buffer (20 mM Tris-HCl (Sigma, T1503), 137 mM NaCl (Sigma, S9888), 2 mM EDTA (Fisher, BP118), 1% IGEPAL (Sigma, 18896), 10% Glycerol (Sigma, G5516), 100 μM PMSF (Fisher, 36978) and 10 μg/mL Leupeptin (Sigma-Aldrich, L2884). They were placed on a container of ice on a plate shaker (Lab-Line Instruments, 3595) for 30 minutes. The lysate was centrifuged at 10,000 g for 5 minutes at 4° C. The supernatant was collected and used for protein quantification (BioRad, 500-0112).
(§2) To determine effects on extracellular matrix protein secretion, 5 μM of individual glycopeptides were incubated with Human Dermal Fibroblasts (KMST-6). The control sample cells were treated with DMSO (Fisher, BP231-100). As described previously, supernatant was collected from treated cells (at two time-points, 48 and 72 hours of treatment) and stored at −80° C. for subsequent extracellular matrix protein quantification using ELISA kits (Fibronectin (Takara, MK115), Elastin (Uscn Life Science Inc., E91337Hu). For the determination of total cellular protein, treated cells were harvested and lysed. The lysate was centrifuged, the supernatant was collected and then used for protein quantification (BioRad, 500-0112). ELISA plates were read on the plate reader (Molecular Devices) at absorbance of 450 nm and SoftMax Pro software was used to compute the μg/ml values of protein of interest derived from the generated 4-parameter fit standard curve. Each μg/ml of protein secreted was normalized to total protein per well. The data was analysed by averaging out normalized values from at least three independent experiments and presenting them as a % compared to control treatment set at 100% (Table 2-5). Statistical significance was performed using One-way ANOVA (p<0.05) where “*” represents statistical significance when compared to control and “#” represents statistical significance when compared to reference. […]

[2] = test system: Human Dermal Fibroblasts (KMST-6); assay: ECM ELISA assay: elastin secretion by human dermal fibroblasts; format: cell-based; details: 5 μM; for Elastin Secretion at 48 hours: KMST-6, 48 hours; for Elastin Secretion at 48 hours / Elastin Secretion at 72 hours: % compared to control set at 100%, normalized to total protein
Protocol: as §1, §2

Row | Substance | Fibronectin secretion at 48 hours [1] | Fibronectin Secretion at 72 hours ([1]; KMST-6, 72 hours) [%] | Elastin Secretion at 48 hours [2] | Elastin Secretion at 72 hours ([2]; KMST-6, 72 hours) | biological activity in fibronectin secretion compared to control ([1]; 72 hours) | FIBRONECTIN (ECM Protein Summary Table) ([1]; KMST-6, 72 hours, control 100%) [%] | biological activity in elastin secretion compared to control ([2]; 72 hours) | ELASTIN (ECM Protein Summary Table) ([2]; KMST-6, 72 hours, control 100%) [%]
1 | Pal-KS(Ac4-β-Glc)TKS-OH (Palmitoyl-KS(Ac4‑β‑Glc″)TKS-OH; SMILES CCCCCCCCCCCCCCCC(=O)N[C@@H](CCCCN)C(=O)N[C@@H](CO[C@@H]1O[C@H](COC(C)=O)[C@@H](OC(C)=O)[C@H](OC(C)=O)[C@H]1OC(C)=O)C(=O)N[C@H](C(=O)N[C@@H](CCCCN)C(=O)N[C@@H](CO)C(=O)O)[C@@H](C)O; listed as Homo sapiens) [GP003-3] | 162.0* % | 138.8 | 177.1% | 146.8% |  |  |  | 
2 | Pal-KS(β-Glc)TKS-OH (Palmitoyl-KS(βGlc)TKS-OH; SMILES CCCCCCCCCCCCCCCC(=O)N[C@@H](CCCCN)C(=O)N[C@@H](CO[C@@H]1O[C@H](CO)[C@@H](O)[C@H](O)[C@H]1O)C(=O)N[C@H](C(=O)N[C@@H](CCCCN)C(=O)N[C@@H](CO)C(=O)O)[C@@H](C)O; listed as Homo sapiens) [GP003-4] | 165.8* % | 132.5 | 136.8% | 120.8% |  |  |  | 
3 | Pal-KT(Ac3-α-GalNAc)-T(Ac3-α-GalNAc)KS-OH (Palmitoyl-KT(Ac3‑α‑GalNAc″)T(Ac3‑α‑GalNAc″)KS-OH; SMILES CCCCCCCCCCCCCCCC(=O)N[C@@H](CCCCN)C(=O)N[C@H](C(=O)N[C@H](C(=O)N[C@@H](CCCCN)C(=O)N[C@@H](CO)C(=O)O)[C@@H](C)O[C@H]1O[C@H](COC(C)=O)[C@H](OC(C)=O)[C@H](OC(C)=O)[C@H]1NC(C)=O)[C@@H](C)O[C@H]1O[C@H](COC(C)=O)[C@H](OC(C)=O)[C@H](OC(C)=O)[C@H]1NC(C)=O; listed as Homo sapiens) [GP001-13] | 114.0% | 94.50 | 123.8% | 131.3% |  |  |  | 
4 | Pal-KT(Ac3-α-GalNAc)TKS-OH (Palmitoyl-KT(Ac3‑α‑GalNAc)TKS-OH; SMILES CCCCCCCCCCCCCCCC(=O)N[C@@H](CCCCN)C(=O)N[C@H](C(=O)N[C@H](C(=O)N[C@@H](CCCCN)C(=O)N[C@@H](CO)C(=O)O)[C@@H](C)O)[C@@H](C)O[C@H]1O[C@H](COC(C)=O)[C@H](OC(C)=O)[C@H](OC(C)=O)[C@H]1NC(C)=O; listed as Homo sapiens) [GP001-3] | 163.8* % | 117.4 | 123.3% | 132.5% |  |  |  | 
5 | Pal-KT(Ac3-β-GlcNAc)TKS-OH (Palmitoyl-KT(Ac3‑β‑GlcNAc)TKS-OH; SMILES CCCCCCCCCCCCCCCC(=O)N[C@@H](CCCCN)C(=O)N[C@H](C(=O)N[C@H](C(=O)N[C@@H](CCCCN)C(=O)N[C@@H](CO)C(=O)O)[C@@H](C)O)[C@@H](C)O[C@@H]1O[C@H](COC(C)=O)[C@@H](OC(C)=O)[C@H](OC(C)=O)[C@H]1NC(C)=O; listed as Homo sapiens) [GP001-5] | 125.0% | 105.0 | 81.67% | 90.00% |  |  |  | 
6 | Pal-KT(Ac4-α-Man)TKS-OH (Palmitoyl-KT(Ac4‑α‑Man)TKS-OH; SMILES CCCCCCCCCCCCCCCC(=O)N[C@@H](CCCCN)C(=O)N[C@H](C(=O)N[C@H](C(=O)N[C@@H](CCCCN)C(=O)N[C@@H](CO)C(=O)O)[C@@H](C)O)[C@@H](C)O[C@H]1O[C@H](COC(C)=O)[C@@H](OC(C)=O)[C@H](OC(C)=O)[C@@H]1OC(C)=O; listed as Homo sapiens) [GP003-1] | 193.7* % | 125.3 | 464.1* % | 413.6* % |  |  |  | 
7 | Pal-KT(Ac4-β-Glc)TKS-OH (Palmitoyl-KT(Ac4‑β‑Glc)TKS-OH; SMILES CCCCCCCCCCCCCCCC(=O)N[C@@H](CCCCN)C(=O)N[C@H](C(=O)N[C@H](C(=O)N[C@@H](CCCCN)C(=O)N[C@@H](CO)C(=O)O)[C@@H](C)O)[C@@H](C)O[C@@H]1O[C@H](COC(C)=O)[C@@H](OC(C)=O)[C@H](OC(C)=O)[C@H]1OC(C)=O; listed as Homo sapiens) [GP001-1] | 159.3* % | 121.5 | 205.3% | 188.0% | greater biological activity | 122 | greater biological activity | 188
8 | Pal-KT(α-GalNAc)-T(α-GalNAc)KS-OH (Palmitoyl-KT(αGalNAc)T(αGalNAc)KS-OH; SMILES CCCCCCCCCCCCCCCC(=O)N[C@@H](CCCCN)C(=O)N[C@H](C(=O)N[C@H](C(=O)N[C@@H](CCCCN)C(=O)N[C@@H](CO)C(=O)O)[C@@H](C)O[C@H]1O[C@H](CO)[C@H](O)[C@H](O)[C@H]1NC(C)=O)[C@@H](C)O[C@H]1O[C@H](CO)[C@H](O)[C@H](O)[C@H]1NC(C)=O; listed as Homo sapiens) [GP001-14] | 104.8% | 94.75 | 88.00% | 98.25% |  |  |  | 
9 | Pal-KT(α-GalNAc)TKS-OH (Palmitoyl-KT(αGalNAc)TKS-OH; SMILES CCCCCCCCCCCCCCCC(=O)N[C@@H](CCCCN)C(=O)N[C@H](C(=O)N[C@H](C(=O)N[C@@H](CCCCN)C(=O)N[C@@H](CO)C(=O)O)[C@@H](C)O)[C@@H](C)O[C@H]1O[C@H](CO)[C@H](O)[C@H](O)[C@H]1NC(C)=O; listed as Homo sapiens) [GP001-4] | 134.2% | 112.5 | 104.5% | 100.0% |  |  |  | 
10 | Pal-KT(α-Man)TKS-OH (Palmitoyl-KT(αMan)TKS-OH; SMILES CCCCCCCCCCCCCCCC(=O)N[C@@H](CCCCN)C(=O)N[C@H](C(=O)N[C@H](C(=O)N[C@@H](CCCCN)C(=O)N[C@@H](CO)C(=O)O)[C@@H](C)O)[C@@H](C)O[C@H]1O[C@H](CO)[C@@H](O)[C@H](O)[C@@H]1O; listed as Homo sapiens) [GP003-2] | 165.0* % | 110.3 | 121.0% | 160.4% |  |  |  | 
11 | Pal-KT(β-Glc)TKS-OH (Palmitoyl-KT(βGlc)TKS-OH; SMILES CCCCCCCCCCCCCCCC(=O)N[C@@H](CCCCN)C(=O)N[C@H](C(=O)N[C@H](C(=O)N[C@@H](CCCCN)C(=O)N[C@@H](CO)C(=O)O)[C@@H](C)O)[C@@H](C)O[C@@H]1O[C@H](CO)[C@@H](O)[C@H](O)[C@H]1O; listed as Homo sapiens) [GP001-2] | 133.0% | 115.4 | 102.8% | 94.50% |  |  |  | 
